According to patent publication US7037644B1, “Means and methods for monitoring non-nucleoside reverse transcriptase inhibitor antiretroviral therapy and guiding therapeutic decisions in the treatment of HIV/AIDS” (ViroLogic, Inc., priority 1998, dated 2006):
Entries after “also recorded” stand apart in the source; their conditions may differ.

Columns and labels:
[1] = tested on: RTV-757, patient 98-757 (RT V106A, V108I, V189L); assay: Phenotypic susceptibility assay (patient RTV); format: cell-based, HIV-1; conditions: patient RTV pool
Source text: The resistance test vectors containing a functional luciferase gene cassette were constructed and host cells were transfected with the resistance test vector DNA. The resistant test vectors contained patient-derived reverse transcriptase and protease sequences that were either susceptible or resistant to the antiretroviral agents, such as nucleoside reverse transcriptase inhibitors, non-nucleoside reverse transcriptase inhibitors and protease inhibitors. The resistance test vector viral particles produced by transfecting the resistance test vector DNA into host cells, either in the presence or absence of protease inhibitors, were used to infect target host cells grown either in the absence of NRTI or NNRTI or in the presence of increasing concentrations of the drug. The amount of luciferase activity produced in infected target host cells in the presence of drug was compared to the amount of luciferase produced in infected target host cells in the absence of drug. Drug resistance was measured as the amount of drug required to inhibit by 50% the luciferase activity detected in the absence of drug (inhibitory concentration 50%, IC50). The IC50 values were determined by plotting percent drug inhibition vs. log10 drug concentration.
Host cells were seeded in 10-cm-diameter dishes and were transfected several days after plating with resistance test vector plasmid DNA and the envelope expression vector. Transfections were performed using a calcium-phosphate precipitation procedure. The cell culture media containing the DNA precipitate was replaced with fresh medium, from one to 24 hours, after transfection. Cell culture media containing resistance test vector viral particles was harvested one to four days after transfection and was passed through a […] filter before being stored at […]. HIV capsid protein (p24) levels in the harvested cell culture media were determined by an EIA method as described by the manufacturer (SIAC; Frederick, Md.). Before infection, target cells (293 and 293/T) were plated in cell culture media. Control infections were performed using cell culture media from mock transfections (no DNA) or transfections containing the resistance test vector plasmid DNA without the envelope expression plasmid. One to three or more days after infection the media was removed and cell lysis buffer (Promega) was added to each well. Cell lysates were assayed for luciferase activity (FIG. 3). The inhibitory effect of the drug was determined using the following equation: % luciferase inhibition=1−(RLUluc [drug]÷RLUluc)×100 where RLUluc [drug] is the relative light unit of luciferase activity in infected cells in the presence of drug and RLUluc is the Relative Light Unit of luciferase activity in infected cells in the absence of drug. IC50 values were obtained from the sigmoidal curves that were generated from the data by plotting the percent inhibition of luciferase activity vs. the log10 drug concentration. The drug inhibition curves are shown in (FIG. 3).
A resistance test vector was constructed as described in Example 1 from a patient sample designated 98-1033. […]

[2] = tested on: RTV-302, patient 97-302 (RT K103N, I135M, T200A, P225H); assay: Phenotypic susceptibility assay (patient RTV); format: cell-based, HIV-1; conditions: patient virus RTV-302
Method: (§1) The resistance test vectors containing a functional luciferase gene cassette were constructed and host cells were transfected with the resistance test vector DNA. The resistant test vectors contained patient-derived reverse transcriptase and protease sequences that were either susceptible or resistant to the antiretroviral agents, such as nucleoside reverse transcriptase inhibitors, non-nucleoside reverse transcriptase inhibitors and protease inhibitors. […] The IC50 values were determined by plotting percent drug inhibition vs. log10 drug concentration.
(§2) Host cells were seeded in 10-cm-diameter dishes and were transfected several days after plating with resistance test vector plasmid DNA and the envelope expression vector. […] HIV capsid protein (p24) levels in the harvested cell culture media were determined by an EIA method as described by the manufacturer (SIAC; Frederick, Md.). […] The inhibitory effect of the drug was determined using the following equation: % luciferase inhibition=1−(RLUluc [drug]÷RLUluc)×100 where RLUluc [drug] is the relative light unit of luciferase activity in infected cells in the presence of drug and RLUluc is the Relative Light Unit of luciferase activity in infected cells in the absence of drug. […]
A resistance test vector was constructed as described in example 1 from a patient sample designated as 97-302. […] An IC50 was determined for each drug tested. […]

[3] = tested on: RTV-1057, patient 98-1057 (RT A98G, Y181C); assay: Phenotypic susceptibility assay (patient RTV); format: cell-based, HIV-1; conditions: patient RTV pool
Method: as §1, §2

[4] = tested on: RTV-675, patient 98-675 (RT A98G); assay: Phenotypic susceptibility assay (patient RTV); format: cell-based, HIV-1; conditions: patient RTV pool
Method: as §1, §2

[5] = tested on: patient 780 virus (RT K103N, P225H); assay: Phenotypic susceptibility assay (patient virus); format: cell-based, HIV; conditions: patient 780, FIGS. 8D-8F
Source text: FIGS. 8D, 8E, and 8F. Phenotypic Drug Susceptibility and Resistance Profile: Patients 780. This is a second example of the third pattern of NNRTI susceptibility/resistance. […] This pattern is characterized by a larger reduction of nevirapine suseptibility compared to the reduction of delavirdine susceptibility.
The resistance test vectors containing a functional luciferase gene cassette were constructed and host cells were transfected with the resistance test vector DNA. […] The IC50 values were determined by plotting percent drug inhibition vs. log10 drug concentration.
as §2

Row | SMILES | decrease in susceptibility (fold, IC50) [1] | change in susceptibility [2] | decrease in susceptibility (fold, IC50) [3] [fold] | decrease in susceptibility (fold, IC50) [4] [fold] | change in susceptibility [5]
1 | CC(C)Nc1cccnc1N1CCN(C(=O)c2cc3cc(NS(C)(=O)=O)ccc3[nH]2)CC1 [delavirdine] | 10 fold | modest decrease; also recorded: reduced susceptibility | 35 | 2.1 | reduced susceptibility
2 | Cc1ccnc2c1NC(=O)c1cccnc1N2C1CC1 [nevirapine] | greater than 800 fold | significant decrease; also recorded: reduced susceptibility | 610 | 6 | reduced susceptibility
